This note sets out measurements from article PMC12040169 (PLOS Biology, 2025).

Structures are written as SMILES.

The series in a line: in vitro. To be noted: human, hela cells, % viability.
For the compound `O=c1c2c([nH]c3nc(NCc4ccc(OCc5ccccc5)cc4)nn13)CCC2` [CBK268044], the viability (in general, a read-out of living cells in per cent, often relative to untreated cells) at 28.5 h, 10 µM turned out to be 96.9%.

Consider `Cc1ccc(CSCCNS(=O)(=O)c2ccc3ccccc3c2)cc1` [CBK268048], for which the viability at 28.5 h, 10 µM was found to be 107%.

As to `CCc1ccc(OC(C)c2nnc(SCC(=O)N3c4ccccc4Sc4ccccc43)n2C)cc1` (stereo not drawn) [CBK268058], the viability at 28.5 h, 10 µM amounted to 92.3%.

Regarding `O=C(CSCc1ccc(Br)cc1)N1CCN(Cc2ccc3c(c2)OCO3)CC1` [CBK268059], the viability at 28.5 h, 10 µM is 89.7%.

For the compound `O=C(O)c1cccc(CSc2nnc(Cc3ccccc3)o2)c1` [CBK268060], the viability at 28.5 h, 10 µM stood at 92%.

As for `Cc1ccc(SCc2ccc(C(=O)NCc3cccnc3)cc2)cc1` [CBK268063], the viability at 28.5 h, 10 µM was found to be 96.9%.

With `COC(=O)c1ccc(NC(=O)CNc2ccccc2)cc1` [CBK268064], the viability at 28.5 h, 10 µM was 110%.

For `O=C(O)CSc1nc(O)c2c(-c3ccccc3)csc2n1` [CBK268067], the viability at 28.5 h, 10 µM worked out at 107%.

As for `CSc1nsc(SCC(=O)N2CCN(C(c3ccccc3)c3ccccc3)CC2)n1` [CBK268071], the viability at 28.5 h, 10 µM worked out at 89.2%.

Take `N#CCCn1cc(C(=O)n2nnc3ccccc32)c(-c2cc3ccccc3o2)n1` [CBK268073]: the viability at 28.5 h, 10 µM is 103%.

On to `CCOc1ccccc1NC(=O)CSc1nc(N)cc(O)n1` [CBK268075], for which the viability at 28.5 h, 10 µM stood at 107%.

`O=C(CSc1nc(O)c2c(-c3ccccc3)csc2n1)NCCc1ccccc1` [CBK268077]: the viability at 28.5 h, 10 µM came out at 97.2%.

In the case of `CCOC(=O)c1c[nH]c2nc(COc3ccccc3)nn2c1=O` [CBK268088], the viability at 28.5 h, 10 µM worked out at 107%.

Consider `COc1ccc(S(=O)(=O)N(C)CC(=O)NCc2cccnc2)cc1Cl` [CBK268089], for which the viability at 28.5 h, 10 µM was 108%.

`CCOc1ccc(CNCCc2ccc(S(N)(=O)=O)cc2)cc1` [CBK268090C]: the viability at 28.5 h, 10 µM was found to be 94.6%.

On to `CCN1CCN(C(=O)CN(C)S(=O)(=O)c2ccc(OC)c(Cl)c2)CC1` [CBK268091], for which the viability at 28.5 h, 10 µM was found to be 93.2%.

Take `Cn1nnnc1SCc1nc(N)nc(Nc2ccccc2)n1` [CBK268092]: the viability at 28.5 h, 10 µM was 98.7%.

On to `COc1ccc2nc(O)c(CN(c3ccccc3)S(=O)(=O)c3ccccc3)cc2c1` [CBK268093], for which the viability at 28.5 h, 10 µM turned out to be 97.7%.

With `COc1ccc(NC(=O)c2ccc(N(C)Cc3ccccc3)c([N+](=O)[O-])c2)cc1` [CBK268094], the viability at 28.5 h, 10 µM was determined as 86.4%.

Turning to `O=C(COc1ccc(N2CC(C(=O)O)CC2=O)cc1)Nc1cccc(C(F)(F)F)c1` (stereo not drawn) [CBK268096], the viability at 28.5 h, 10 µM came to 100%.

With `CCn1c(C)c(/C=C/c2nc3ccccc3c(=O)n2CCCO)c2ccccc21` [CBK268099], the viability at 28.5 h, 10 µM amounted to 95.7%.

As to `CC12CN(S(=O)(=O)c3ccccc3)CC(c3ccccc3)(CN(S(=O)(=O)c3ccccc3)C1)C2=O` [CBK268101], the viability at 28.5 h, 10 µM was found to be 97%.

With `CC(C)NS(=O)(=O)c1ccc(NC(=O)Cc2cccc3ccccc23)cc1` [CBK268102], the viability at 28.5 h, 10 µM was found to be 94.8%.

With `CCn1c(COc2c(C)cccc2C)nnc1SCC(=O)N1c2ccccc2Sc2ccccc21` [CBK268103], the viability at 28.5 h, 10 µM came out at 96.4%.

On to `CCOc1c(CNCc2ccccn2)cccc1OC` [CBK268104C], for which the viability at 28.5 h, 10 µM came to 96.9%.

Consider `CCOC(=O)c1ccc(N2CC(C(=O)O)CC2=O)cc1` (stereo not drawn) [CBK268106], for which the viability at 28.5 h, 10 µM worked out at 115%.

For the compound `Cc1scc(C(=O)NCc2ccccn2)c1-c1ccccc1` [CBK268107], the viability at 28.5 h, 10 µM was determined as 89%.

With `Cc1cc(C(=O)NCc2ccc(C(=O)O)cc2)no1` [CBK268108], the viability at 28.5 h, 10 µM is 98.3%.

As to `Cc1ccc(OC(C)C(=O)NCCCN2CCOCC2)cc1C` (stereo not drawn) [CBK268109], the viability at 28.5 h, 10 µM came out at 94.3%.

For `Cc1noc(C)c1C(=O)Nc1sc2c(c1C(=O)NCc1ccco1)CCCCCC2` [CBK268112], the viability at 28.5 h, 10 µM is 99.3%.

As for `Cc1cc(OCC(=O)Nc2nn(Cc3ccccc3Cl)cc2Cl)ccc1[N+](=O)[O-]` [CBK268113], the viability at 28.5 h, 10 µM is 100%.

Turning to `Cc1cc(OCC(=O)Nc2ccc(S(=O)(=O)N3CCOCC3)cc2)ccc1[N+](=O)[O-]` [CBK268114], the viability at 28.5 h, 10 µM stood at 113%.

`CN1CCN(NC(=O)COc2ccc(-c3ccccc3)cc2)CC1` [CBK268117]: the viability at 28.5 h, 10 µM stood at 89.8%.

As for `CCc1noc(C)c1C(=O)NCCN(C)C` [CBK268118], the viability at 28.5 h, 10 µM came to 97.5%.

`COC(=O)c1c(-c2ccncc2)csc1NC(=O)Cc1ccc([N+](=O)[O-])cc1` [CBK268119]: the viability at 28.5 h, 10 µM was 90.1%.

Turning to `O=C(O)C1CC=CCC1C(=O)Nc1ccc(S(=O)(=O)N2CCc3ccccc32)cc1` (stereo not drawn) [CBK268122], the viability at 28.5 h, 10 µM is 108%.

In the case of `O=C(Nc1cccc(Cn2cccn2)c1)c1csc2ccccc12` [CBK268123], the viability at 28.5 h, 10 µM amounted to 93.2%.

Consider `CN1CCN(NC(=O)COc2cccc(C(F)(F)F)c2)CC1` [CBK268124], for which the viability at 28.5 h, 10 µM came out at 90.2%.

Regarding `Cc1cc(C(=O)N2CCN(Cc3ccc(F)cc3Cl)CC2)no1` [CBK268126], the viability at 28.5 h, 10 µM is 100%.

For the compound `CCc1noc(C)c1C(=O)Nc1cccc(Cn2cc(Cl)cn2)c1` [CBK268127], the viability at 28.5 h, 10 µM stood at 97.6%.

Turning to `NS(=O)(=O)c1ccc(CCNC(=O)c2ccc3c(c2)OCCO3)cc1` [CBK268128], the viability at 28.5 h, 10 µM was 104%.

Take `NS(=O)(=O)c1ccc(NC(=S)N2CCN(CCc3ccccc3)CC2)cc1` [CBK268133]: the viability at 28.5 h, 10 µM turned out to be 97.6%.

`Cc1cc(C(=O)Nc2sc(C)c(C)c2C(=O)NCc2cccnc2)no1` [CBK268134]: the viability at 28.5 h, 10 µM turned out to be 100%.

Consider `CCC(Oc1cccc(Cl)c1)C(=O)NN1CCN(C)CC1` (stereo not drawn) [CBK268135], for which the viability at 28.5 h, 10 µM amounted to 116%.

Take `CC(Oc1ccc(Br)cc1Cl)C(=O)NCCCN1CCCC1=O` (stereo not drawn) [CBK268138]: the viability at 28.5 h, 10 µM was determined as 98.7%.

As to `Cc1cc(NS(=O)(=O)c2ccc(NC(=O)Nc3ccc4c(c3)OCO4)cc2)no1` [CBK268139], the viability at 28.5 h, 10 µM came to 104%.

In the case of `Cc1ccc(-c2csc(NC(=O)c3c(C)noc3C)c2C(=O)NC2CC2)cc1` [CBK268141], the viability at 28.5 h, 10 µM came out at 95.1%.

For the compound `CN1CCN(NC(=O)CSc2ccccc2)CC1` [CBK268142], the viability at 28.5 h, 10 µM was 107%.

With `COc1ccccc1CCNC(=O)c1cnccn1` [CBK268147], the viability at 28.5 h, 10 µM is 59.7%.

Regarding `CCOc1ccc(CC(=O)NN2CCOCC2)cc1OCC` [CBK268150], the viability at 28.5 h, 10 µM is 102%.

Regarding `COc1cc(NS(=O)(=O)c2ccc(NC(=O)c3c(C)noc3C)cc2)nc(OC)n1` [CBK268151], the viability at 28.5 h, 10 µM came out at 103%.

With `O=C(Nc1nn(Cc2c(F)cccc2Cl)cc1Cl)c1cccnc1` [CBK268154], the viability at 28.5 h, 10 µM amounted to 79.1%.

`NS(=O)(=O)c1ccc(CCNC(=O)c2cccnc2)cc1` [CBK268158]: the viability at 28.5 h, 10 µM turned out to be 102%.

`Cc1ccc(OCC(=O)Nc2sc(C)c(C)c2C#N)c([N+](=O)[O-])c1` [CBK268162]: the viability at 28.5 h, 10 µM worked out at 101%.

Take `Cc1c(C(N)=O)sc(NC(=O)c2cccnc2)c1C#N` [CBK268163]: the viability at 28.5 h, 10 µM stood at 105%.

On to `Cc1sc(NC(=O)COc2ccccc2)c(C(N)=O)c1-c1ccccc1` [CBK268164], for which the viability at 28.5 h, 10 µM was 97.8%.

On to `O=C(Nc1sccc1C(=O)N1CCOCC1)C(Sc1ccccc1)c1ccccc1` (stereo not drawn) [CBK268165], for which the viability at 28.5 h, 10 µM was 95%.
